These results are taken from BindingDB's records for doi:10.1016/S0960-894X(97)00319-3 (1997).

The nature of this test: Inhibition of [125I]ET1 binding to porcine kidney inner medulla membranes.

In general, IC50 refers to the concentration at which inhibition is half-maximal. A low value points to higher potency. Compound `CCOc1ccc2c(c1)c(-c1ccc(OC)cc1)c(C(=O)O)c(=O)n2Cc1cc(OC)ccc1OC` [1-(2,5-Dimethoxy-benzyl)-6-ethoxy-4-(4-methoxy-phenyl)-2-oxo-1,2-dihydro-quinoline-3-carboxylic acid] gave a half-inhibitory concentration (IC50) of 200 nM.

`CCOc1ccc2c(c1)c(-c1ccc(OC)cc1OC)c(C(=O)O)c(=O)n2Cc1ccccc1OC` [4-(2,4-Dimethoxy-phenyl)-6-ethoxy-1-(2-methoxy-benzyl)-2-oxo-1,2-dihydro-quinoline-3-carboxylic acid] returned an IC50 of 540 nM.

For `COc1ccccc1Cn1c(=O)c(C(=O)O)c(-c2ccc3c(c2)OCO3)c2ccccc21` [4-Benzo[1,3]dioxol-5-yl-1-(2-methoxy-benzyl)-2-oxo-1,2-dihydro-quinoline-3-carboxylic acid], the half-inhibitory concentration (IC50) amounted to 940 nM.

Turning to `COc1ccc(Cn2c(=O)c(C(=O)O)c(-c3ccc4c(c3)OCO4)c3ccccc32)cc1` [4-Benzo[1,3]dioxol-5-yl-1-(4-methoxy-benzyl)-2-oxo-1,2-dihydro-quinoline-3-carboxylic acid], the IC50 worked out at 6800 nM.

On to `O=C(O)c1c(-c2ccc3c(c2)OCO3)c2ccccc2n(Cc2ccccc2)c1=O` [4-Benzo[1,3]dioxol-5-yl-1-benzyl-2-oxo-1,2-dihydro-quinoline-3-carboxylic acid], for which the half-inhibitory concentration (IC50) was above 10000 nM.

In turn, `COc1ccccc1Cn1c(=O)c(C(=O)O)c(-c2ccc3c(c2)OCO3)c2c(OC)c(OC)ccc21` [4-Benzo[1,3]dioxol-5-yl-5,6-dimethoxy-1-(2-methoxy-benzyl)-2-oxo-1,2-dihydro-quinoline-3-carboxylic acid] gave an IC50 of 2600 nM.

For `CCOc1ccc2c(c1)c(-c1ccc3c(c1)OCO3)c(C(=O)O)c(=O)n2Cc1ccccc1OC` [4-Benzo[1,3]dioxol-5-yl-6-ethoxy-1-(2-methoxy-benzyl)-2-oxo-1,2-dihydro-quinoline-3-carboxylic acid], the IC50 was 450 nM.

In the case of `CCc1ccc2c(c1)c(-c1ccc3c(c1)OCO3)c(C(=O)O)c(=O)n2Cc1ccccc1OC` [4-Benzo[1,3]dioxol-5-yl-6-ethyl-1-(2-methoxy-benzyl)-2-oxo-1,2-dihydro-quinoline-3-carboxylic acid], the IC50 is 1300 nM.

Take `CCOc1ccc2c(c1)c(-c1ccc(OC)cc1)c(C(=O)O)c(=O)n2Cc1ccccc1OC` [6-Ethoxy-1-(2-methoxy-benzyl)-4-(4-methoxy-phenyl)-2-oxo-1,2-dihydro-quinoline-3-carboxylic acid]: the IC50 worked out at 500 nM.
